Converted amounts (≈) assume the structure as drawn.
Assays:
[1] = tested on: HIV-1; assay: in-vitro anti-HIV assay: inhibition of HIV-induced cytopathic effect in MT-4 cells (MTT); assay type: cell-based; conditions: for SI (selectivity index, ratio of CD50 to ED50): CD50/ED50, MT-4 cells; for EC50: Human immunodeficiency virus 1, MT4, read-out: ED50 (50% effective dose)
Description: (§1) A rapid, sensitive and automated assay procedure was used for the in-vitro evaluation of anti-HIV agents. An […] T4-cell line, MT-4, which was previously shown Koyanagi et al., Int. J. Cancer, , 36, 445-451, 1985) to be highly susceptible to and permissive for HIV infection, served as the target cell line. Inhibition of the HIV-induced cytopathic effect was used as the end point. The viability of both HIV- and mock-infected cells was assessed spectrophotometrically via the in-situ reduction of 3-(4,5-dimethylthiazol-2-yl)-2,5-diphenyltetrazolium bromide (MTT). The 50% cytotoxic dose (CD50 in μg/ml) was defined as the concentration of compound that reduced the absorbance of the mock-infectedcontrol sample by 50%. The percent protection achieved by the compound in HIV-infected cells was calculated by the following formula: [formula] whereby (ODT)HIV is the optical density measured with a given concentration of the test compound in HIV-infected cells; (ODC)HIV is the optical density measured for the control untreated HIV-infected cells; (ODC)MOCK is the optical density means for the control untreated mock-infected cells; all optical density values were determined at 540 nm. The dose achieving 50% protection according to the above formula was defined as the 50% effective dose […]). The ratio of CD50 to ED50 was defined as the selectivity index (SI).

[2] = in vitro; assay type: cell-based; conditions: human, mt-4 cells
Description: as §1

For `CCn1nc(C)c([N+](=O)[O-])c1NC(C(N)=O)c1c(Cl)cccc1Cl` (stereo not drawn) [compound 3], the “SI (selectivity index, ratio of CD50 to ED50)” value [1] was 61, the EC50 [1] was 2 µg/mL (≈ 5.37 µM) and the CC50 [2] was 122 µg/mL (≈ 327 µM).

In the case of `NC(=O)C(Nc1ncccc1[N+](=O)[O-])c1c(Cl)cccc1Cl` (racemic) [compound 1, (±)-2,6-dichloro-α-[(3-nitro-2-pyridinyl)amino]benzeneacetamide], the “SI (selectivity index, ratio of CD50 to ED50)” value [1] is reported as 1299, the EC50 [1] is reported as 0.03 µg/mL (≈ 0.0879 µM) and the CC50 [2] is reported as 35.8 µg/mL (≈ 105 µM).

For `NC(=O)C(Nc1ccc[nH]c1=O)c1c(Cl)cccc1Cl` (racemic) [compound 8, (±)-2,6-dichloro-α-[(1,2-dihydro-2-oxo-3-pyridinyl)amino]benzeneacetamide], the “SI (selectivity index, ratio of CD50 to ED50)” value [1] was 1181, the EC50 [1] was 0.18 µg/mL (≈ 0.577 µM) and the CC50 [2] was 217 µg/mL (≈ 696 µM).

In the case of `CC(Nc1ncccc1[N+](=O)[O-])c1c(Cl)cccc1Cl` (stereo not drawn) [compound 13], the “SI (selectivity index, ratio of CD50 to ED50)” value [1] is reported as 33, the EC50 [1] is reported as 0.0073 µg/mL (≈ 0.0234 µM) and the CC50 [2] is reported as 0.24 µg/mL (≈ 0.769 µM).

In the case of `CC(=O)c1cccnc1NC(C)c1c(Cl)cccc1Cl` (racemic) [compound 11, (±)-1-[2-[[1-(2,6-dichlorophenyl)ethyl]amino]-3-pyridinyl]ethanone], the “SI (selectivity index, ratio of CD50 to ED50)” value [1] is reported as 463, the EC50 [1] is reported as 0.068 µg/mL (≈ 0.22 µM) and the CC50 [2] is reported as 31.4 µg/mL (≈ 102 µM).

In the case of `N#Cc1cccnc1NC(C(N)=O)c1c(Cl)cccc1Cl` (stereo not drawn) [compound 2], the “SI (selectivity index, ratio of CD50 to ED50)” value [1] is reported as 243, the EC50 [1] is reported as 0.1 µg/mL (≈ 0.311 µM) and the CC50 [2] is reported as 25.3 µg/mL (≈ 78.8 µM).

In the case of `CC(=O)c1nccnc1NC(C)c1c(Cl)cccc1Cl` (stereo not drawn) [compound 12], the “SI (selectivity index, ratio of CD50 to ED50)” value [1] is reported as 289, the EC50 [1] is reported as 0.013 µg/mL (≈ 0.0419 µM) and the CC50 [2] is reported as 3.82 µg/mL (≈ 12.3 µM).

In the case of `CC(=O)c1nccnc1NC(C(N)=O)c1c(Cl)cccc1Cl` (stereo not drawn) [compound 7], the “SI (selectivity index, ratio of CD50 to ED50)” value [1] is reported as 41.5, the EC50 [1] is reported as 3.8 µg/mL (≈ 11.2 µM) and the CC50 [2] is reported as 157 µg/mL (≈ 462 µM).
